By EC50 is commonly meant the concentration giving half of the maximal effect.

The assay deals with HIV-1 NL4.3 strain. In words: C8166 HIV-1 Luciferase Assay (EC50). It is filed as cell-based. Conditions: Human immunodeficiency virus 1, C8166, 72 h, read-out: Antiviral potency EC50. From the text: C8166 HIV-1 Luciferase Assay (EC50)
C8166 cells are derived from a human T-lymphotrophic virus type 1 immortalized but nonexpressing line of cord blood lymphocytes (obtained from J. Sullivan and originally produced in the laboratory of R. Gallo, Virology 1983; 129: 51-64) and are highly permissive to HIV-1 infection. The pGL3 Basic LTR/TAR plasmid is made by introducing the HIV-1 HxB2 LTR sequence from nucleotide −138 to +80 (Sca1-HindIII) upstream of the luciferase gene in the pGL3 Basic Vector (a promoterless luciferase expression vector from Promega catalogue # E1751) with the gene for blasticidine resistance cloned in. The reporter cells are made by electroporating C8166 cells with pGL3 Basic LTR/TAR and selecting positive clones with blasticidine. Clone C8166-LTRIuc #A8-F5-G7 is selected by 3 consecutive rounds of limiting dilution under blasticidine selection. Cultures are maintained in complete media (consisting of: Roswell Park Memorial Institute medium (RPMI) 1640+10% FBS+10^−5 M β-mercaptoethanol+10 μg/ml gentamycin) with 5 μg/ml blasticidine, however, blasticidine selection is removed from the cells before performing the viral replication assay.
Luciferase Assay Protocol
Serial dilutions of HIV-1 inhibitor compounds are prepared in complete media from 10 mM DMSO stock solutions. Eleven serial dilutions of 2.5× are made at 8× desired final concentration in a 1 mL deep well titer plate (96 wells). The 12th well contains complete media with no inhibitor and serves as the positive control. All samples contain the same concentration of DMSO (≦0.1% DMSO). A 25 μL aliquot of inhibitor is added, to triplicate wells, of a 96 well tissue culture treated clear view black microtiter plate (Corning Costar catalogue # 3904). The total volume per well is 200 μL of media containing cells and inhibitor. The last row is reserved for uninfected C8166 LTRluc cells to serve as the background blank control and the first row is media alone.
C8166 LTRluc cells are counted and placed in a minimal volume of complete RPMI 1640 in a tissue culture flask (ex. 30×10^6 cells in 10 mL media/25 cm^2 flask). Cells are infected with HIV-1 or virus with variant integrase generated as described below at a […] (moi) of 0.005. Cells are incubated for 1.5 hours at 37° C. on a rotating rack in a 5% CO2 incubator and re-suspended in complete RPMI to give a final concentration of 25,000-cells/175 μL. 175 μL of cell mix is added to wells of a 96 well microtiter plate containing 25 μL 8× inhibitors. 25,000 uninfected C8166-LTRluc cells/well in 200 μL complete RPMI are added to the last row for background control. Cells are incubated at 37° C. in 5% CO2 incubator for 3 days.
50 μL Steady Glo (luciferase substrate T1/2=5 hours Promega catalogue # E2520) is added to each well of the 96 well plate. The relative light units (RLU) of luciferase is determined using the LUMIstar Galaxy luminometer (BMG LabTechnologies). Plates are read from the bottom for 2 seconds per well with a gain of 240.
The level of inhibition (% inhibition) of each well containing inhibitor is calculated as follows: […]
The calculated % inhibition values are used to determine EC50, slope factor (n) and maximum inhibition (Imax) by the non-linear regression routine NLIN procedure of SAS using the following equation: […]
As for `Cc1ccc(-c2nc(C)c([C@H](OC(C)(C)C)C(=O)O)c(-c3ccc4c5c(ccnc35)CCO4)c2C)cc1C` [compound 1116], the EC50 was 13 nM.

Turning to `CC[C@@H](C)NC(=O)c1nc(C)c([C@H](OC(C)(C)C)C(=O)O)c(-c2ccc(Cl)cc2)c1C` [compound 1160], the EC50 was 16 nM.

As for `Cc1nc(-c2ccc(-c3cncnc3)cc2)c(C)c(-c2ccc3c(c2C)CCCO3)c1[C@H](OC(C)(C)C)C(=O)O` [compound 1102], the 50% effective concentration (EC50) stood at 17 nM.

As to `Cc1nc(C(=O)NCC2CCCC2)c(C)c(-c2ccc3c(c2Cl)NCCO3)c1[C@H](OC(C)(C)C)C(=O)O` [compound 1256], the EC50 came to 8.1 nM.

Take `COc1ccc2nc(-c3nc(C)c([C@H](OC(C)(C)C)C(=O)O)c(-c4ccc(Cl)cc4)c3C)n(C)c2c1` [compound 1439]: the EC50 is 4 nM.

Regarding `Cc1nc(C(=O)N[C@H]2CC[C@H](C)CC2)c(C)c(-c2ccc(Br)cc2)c1[C@H](OC(C)(C)C)C(=O)O` [compound 1456], the EC50 came out at 4.2 nM.

Regarding `Cc1nc(C(=O)N2Cc3ccccc3C2)c(C)c(-c2ccc(Cl)cc2)c1[C@H](OC(C)(C)C)C(=O)O` [compound 1471], the EC50 was 2.4 nM.

As for `Cc1nc(-c2nc3ccccc3n2CC2CC2)c(C)c(-c2ccc(Cl)cc2)c1[C@H](OC(C)(C)C)C(=O)O` [compound 1449], the EC50 turned out to be 1.8 nM.

Take `COc1cc(Cl)ccc1C(=O)Nc1nc(C)c([C@H](OC(C)(C)C)C(=O)O)c(-c2ccc(Cl)cc2)c1C` [compound 1462]: the EC50 turned out to be 1.2 nM.

`Cc1nc(-c2cccc(-c3ccnn3C)c2)c(C)c(-c2ccc(Cl)cc2)c1[C@H](OC(C)(C)C)C(=O)O` [compound 1124]: the EC50 came to 81 nM.

As to `Cc1nc(C(=O)NC2CCC3(CC2)CC3)c(C)c(-c2ccc(Cl)cc2F)c1[C@H](OC(C)(C)C)C(=O)O` [compound 1452], the EC50 was 5.7 nM.

Take `CCn1c(-c2nc(C)c([C@H](OC(C)(C)C)C(=O)O)c(-c3ccc(Cl)cc3)c2C)nc2ccccc21` [compound 1440]: the EC50 was determined as 2.4 nM.

`Cc1nc(C(=O)NC2CCCCCC2)c(C)c(-c2ccc(Cl)cc2)c1[C@H](OC(C)(C)C)C(=O)O` [compound 1147]: the EC50 came to 6.9 nM.

`Cc1nc(C(=O)NC(C)(C)C)c(C)c(-c2ccc(Cl)cc2)c1[C@H](OC(C)(C)C)C(=O)O` [compound 1143]: the EC50 stood at 21 nM.

For the molecule `Cc1nc(-c2cccc(-c3cccnc3)c2)c(C)c(-c2ccc3c(c2)CCCO3)c1[C@H](OC(C)(C)C)C(=O)O` [compound 1009], the EC50 is 20 nM.

Consider `Cc1nc(C(=O)Nc2ccc3ncccc3c2)c(C)c(-c2ccc(Cl)cc2)c1[C@H](OC(C)(C)C)C(=O)O` [compound 1275], for which the half-maximal effective concentration (EC50) was 4.5 nM.

In the case of `Cc1nc(C(=O)N[C@H]2CC[C@H](C)CC2)c(C)c(-c2ccc3c(c2)SCCO3)c1[C@H](OC(C)(C)C)C(=O)O` [compound 1459], the EC50 is 4 nM.

`Cc1nc(NC(=O)c2ccc(Cl)c(F)c2)c(C)c(-c2ccc(Cl)cc2)c1[C@H](OC(C)(C)C)C(=O)O` [compound 1466]: the EC50 was 4.9 nM.

`Cc1nc(C(=O)NC2CCC(C(C)(C)C)CC2)c(C)c(-c2ccc(Cl)cc2)c1[C@H](OC(C)(C)C)C(=O)O` (stereo partly shown) [compound 1161]: the EC50 stood at 27 nM.

`[2H]C1([2H])C([2H])([2H])C([2H])([2H])C([2H])(NC(=O)c2nc(C)c([C@H](OC(C)(C)C)C(=O)O)c(-c3ccc(Cl)cc3)c2C)C([2H])([2H])C1([2H])[2H]` [compound 1443]: the EC50 is 7.1 nM.

As for `Cc1ccc(-c2nc(C)c([C@H](OC(C)(C)C)C(=O)O)c(-c3ccc(Cl)cc3)c2C)cc1C` [compound 1111], the EC50 amounted to 15 nM.

Regarding `Cc1nc(-c2nc3ccccc3n2C2CC2)c(C)c(-c2ccc(Cl)cc2)c1[C@H](OC(C)(C)C)C(=O)O` [compound 1450], the EC50 is 7.7 nM.

Turning to `Cc1nc(-c2nc3ccc(Cl)cn3c2C)c(C)c(-c2ccc(Cl)cc2)c1[C@H](OC(C)(C)C)C(=O)O` [compound 1469], the EC50 is 0.61 nM.

With `COc1cc(C(=O)Nc2nc(C)c([C@H](OC(C)(C)C)C(=O)O)c(-c3ccc(Cl)cc3)c2C)nc2ccccc12` [compound 1461], the EC50 is 2.5 nM.

Regarding `Cc1nc(-c2nc3ccc(Cl)cc3[nH]2)c(C)c(-c2ccc(Br)cc2)c1[C@H](OC(C)(C)C)C(=O)O` [compound 1447], the EC50 was found to be 0.38 nM.

Consider `Cc1nc(-c2nc3cc(Cl)ccc3[nH]2)c(C)c(-c2ccccc2Cl)c1[C@H](OC(C)(C)C)C(=O)O` [compound 1446], for which the EC50 was found to be 1.9 nM.

In the case of `Cc1nc(NC(=O)C(C)(C)C)c(C)c(-c2ccc3c(c2Cl)NCCO3)c1[C@H](OC(C)(C)C)C(=O)O` [compound 1242], the EC50 was 220 nM.

With `Cc1c(-c2ccc3c(c2)CCCO3)c([C@H](OC(C)(C)C)C(=O)O)c(C)n2cc(CC(C)(C)C)nc12` [compound 4002], the EC50 came out at 73 nM.

In the case of `Cc1nc(NC(=O)[C@H]2CC[C@H](C)CC2)c(C)c(-c2ccc(Cl)cc2)c1[C@H](OC(C)(C)C)C(=O)O` [compound 1464], the EC50 turned out to be 6.2 nM.

As for `Cc1nc(C(=O)NC2CCC(C)(C)CC2)c(C)c(-c2ccc(Br)cc2)c1[C@H](OC(C)(C)C)C(=O)O` [compound 1457], the EC50 was 4 nM.

On to `Cc1nc(C(=O)NC2CCCCCC2)c(C)c(-c2ccc3c(c2C)NCCO3)c1[C@H](OC(C)(C)C)C(=O)O` [compound 1192], for which the EC50 was 8.3 nM.

In the case of `Cc1nc(C(=O)N[C@H]2CC[C@H](C)CC2)c(C)c(-c2ccc(Cl)cc2)c1[C@H](OC(C)(C)C)C(=O)O` [compound 1142], the EC50 was 7.9 nM.

`Cc1ccc(-c2nc(C)c([C@H](OC(C)(C)C)C(=O)O)c(-c3ccc4c(c3C)NCCO4)c2C)cc1C` [compound 1113]: the EC50 turned out to be 7.7 nM.

As for `Cc1nc(NC(=O)c2oc3ccccc3c2C)c(C)c(-c2ccc(Cl)cc2)c1[C@H](OC(C)(C)C)C(=O)O` [compound 1463], the EC50 is 2.1 nM.

For the molecule `Cc1nc(C(=O)N[C@H]2CC[C@H](C)CC2)c(C)c(-c2ccccc2Cl)c1[C@H](OC(C)(C)C)C(=O)O` [compound 1455], the EC50 stood at 4 nM.

For the molecule `COCc1nc(-c2ccc(C)c(C)c2)c(C)c(-c2ccc(Cl)cc2)c1[C@H](OC(C)(C)C)C(=O)O` [compound 2003], the EC50 stood at 17 nM.

As for `Cc1ccc(C(F)(F)F)c(C(=O)Nc2nc(C)c([C@H](OC(C)(C)C)C(=O)O)c(-c3ccc(Cl)cc3)c2C)c1` [compound 1465], the EC50 was found to be 11 nM.

On to `Cc1nc(C(=O)Nc2ccc(F)cn2)c(C)c(-c2ccc3c(c2)NCCO3)c1[C@H](OC(C)(C)C)C(=O)O` [compound 1290], for which the EC50 turned out to be 11 nM.

For `Cc1nc(C(=O)NC(C)(C)c2ccccc2)c(C)c(-c2ccc(Cl)cc2)c1[C@H](OC(C)(C)C)C(=O)O` [compound 1154], the EC50 is 27 nM.

`Cc1nc(C(=O)N[C@H]2CC[C@H](C)CC2)c(C)c(-c2ccc3c(c2)CCCO3)c1[C@H](OC(C)(C)C)C(=O)O` [compound 1127]: the EC50 was 4.5 nM.

With `Cc1nc(C(=O)N[C@H]2CC[C@H](C)CC2)c(C)c(-c2ccc(Cl)cc2)c1[C@H](OC1(C)CCC1)C(=O)O` [compound 3009], the EC50 was 24 nM.

`Cc1nc(C(=O)Nc2ccc(C(F)(F)F)nc2)c(C)c(-c2ccc(Cl)cc2)c1[C@H](OC(C)(C)C)C(=O)O` [compound 1280]: the EC50 stood at 22 nM.

Take `Cc1nc(C(=O)NC2CCC(C)(C)CC2)c(C)c(-c2ccc(Cl)cc2F)c1[C@H](OC(C)(C)C)C(=O)O` [compound 1451]: the EC50 worked out at 1.7 nM.
